The values below come from patent US12162867B2, “Inhibitors of RNA helicase DHX9 and uses thereof” (ACCENT THERAPEUTICS, INC., priority 2022, dated 2024).

One assay relates to circBRIP1 in HCT116 cells. In words: DHX9 circBRIP1 cellular target engagement SYBR Green assay (qPCR). In kind it is cell-based. As to conditions: Homo sapiens, HCT-116, circBRIP1, HCT116 cells; SyBr assay (marked ^+); read-out: DHX9 Cellular Target Engagement EC50. (In general: Real-time PCR tracks product formation cycle by cycle.)
Turning to `CS(=O)(=O)Nc1cc(Cl)cc(NC(=O)c2cc(-c3ccc(N4CCOCC4)cn3)n(CC(F)(F)F)c2)c1` [Example 275], the EC50 stood at 190 nM.
As to `CS(=O)(=O)Nc1cc(F)cc(NC(=O)c2c[nH]c(Br)c2)c1` [Example 2], the EC50 is greater than 30000 nM.
Consider `CS(=O)(=O)Nc1cc(Br)cc(NC(=O)c2cc(-c3ccccc3OCc3ccccc3)cs2)c1` [Example 30], for which the EC50 is 687 nM.
With `CC(Oc1cccnc1-n1cc(C(=O)Nc2cc(Cl)cc(NS(C)(=O)=O)c2)cn1)c1ccccc1` (stereo not drawn) [Example 62], the EC50 is 6800 nM.
With `CN1CCN(c2cnc(-n3cc(C(=O)Nc4cc(Cl)cc(NS(C)(=O)=O)c4)cn3)cn2)CC1=O` [Example 184], the EC50 is greater than 10000 nM.
Still for that read-out and setting: the same measure for `Cn1nc(C(=O)Nc2cc(Cl)cc(NS(C)(=O)=O)c2)cc1-c1ccccn1` [Example 140]: greater than 10000 nM.
Same read-out and setting: the same measure for `CS(=O)(=O)Nc1cc(Cl)cc(NC(=O)c2cnn(-c3ncccc3OCc3cnco3)c2)c1` [Example 66]: 4870 nM; for `CS(=O)(=O)Nc1cc(Cl)cc(NC(=O)c2cc(-c3ncccc3NC(=O)C3CC3)cs2)c1` [Example 220]: 303 nM.
Same read-out and setting: the same measure for `CC(=O)N1CCC(n2cc(C(=O)Nc3cc(Cl)cc(NS(C)(=O)=O)c3)cn2)CC1` [Example 317]: greater than 10000 nM; for `CS(=O)(=O)Nc1cc(Cl)cc(NC(=O)c2cnn(-c3ccc(N4CCOCC4=O)cn3)c2)c1` [Example 180]: 1200 nM.
Consider `CS(=O)(=O)Nc1cc(Cl)cc(NC(=O)c2cc3ccncc3s2)c1` [Example 230], for which the concentration for a half-maximal effect (EC50) turned out to be 7250 nM.
In the case of `CS(=O)(=O)Nc1cc(Br)cc(NC(=O)c2cc(Cc3ccc[nH]3)cs2)c1` [Example 104, 4-((1H-pyrrol-2-yl)methyl)-N-(3-bromo-5-(methylsulfonamido)phenyl)-thiophene-2-carboxamide], the half-maximal effective concentration (EC50) amounted to 5490 nM.
With `CSc1ccc(-n2cc(C(=O)Nc3cc(Cl)cc(NS(C)(=O)=O)c3)cn2)nc1` [Example 218], the 50% effective concentration (EC50) was found to be 1390 nM.
Same read-out and setting: the same measure for `CS(=O)(=O)Nc1cc(Cl)cc(NC(=O)c2cnn(-c3ccccc3Oc3cccnc3)c2)c1` [Example 264]: 3540 nM; for `Cn1cc(C(=O)Nc2cc(Cl)cc(NS(C)(=O)=O)c2)cc1N1CCCCC1=O` [Example 158, N-(3-chloro-5-(methylsulfonamido)phenyl)-1-methyl-5-(2-oxopiperidin-1-yl)-1H-pyrrole-3-carboxamide]: 1290 nM; for `Cc1cc(C)c2cc(C(=O)Nc3cc(Cl)cc(NS(C)(=O)=O)c3)cn2c1` [Example 328]: 2670 nM.
Still for that read-out and setting: the same measure for `CS(=O)(=O)Nc1cc(Cl)cc(NC(=O)c2cc3ncccc3s2)c1` [Example 289]: 6550 nM.
Same read-out and setting: the same measure for `CN(C)C(=O)c1cccnc1-c1csc(C(=O)Nc2cc(Cl)cc(NS(C)(=O)=O)c2)c1` [Example 222]: 200 nM; for `Cc1cc(C(=O)Nc2cc(Cl)cc(NS(=O)(=O)C(F)F)c2)cn1-c1ccc(N2CCOCC2)cn1` [Example 248]: greater than 10000 nM.
Turning to `CS(=O)(=O)Nc1cc(Br)cc(NC(=O)c2cnn(-c3ccc(C(F)(F)F)cn3)c2)c1` [Example 43], the half-maximal effective concentration (EC50) came to 4710 nM.
For `CS(=O)(=O)Nc1cc(Cl)cc(NC(=O)c2cnn(-c3ncc(N4CCOCC4)cc3OCc3cccnc3)c2)c1` [Example 194], the EC50 is 2680 nM.
As to `CS(=O)(=O)Nc1cc(Cl)cc(NC(=O)c2cc(-c3ncccc3Oc3cccnc3)cs2)c1` [Example 239], the concentration for a half-maximal effect (EC50) was found to be 348 nM.
Same read-out and setting: the same measure for `CS(=O)(=O)Nc1cc(Cl)cc(NC(=O)c2cccc(-n3cccn3)c2)c1` [Example 117]: 3870 nM; for `Cn1nc(C(=O)Nc2cc(Cl)cc(NS(C)(=O)=O)c2)cc1-c1ccccc1OCc1ccccc1` [Example 138, 5-(2-(benzyloxy)phenyl)-N-(3-chloro-5-(methylsulfonamido)phenyl)-1-methyl-1H-pyrazole-3-carboxamide]: greater than 10000 nM.
Consider `CS(=O)(=O)Nc1cc(Cl)cc(NC(=O)c2cnn(-c3ncccc3C(F)(F)F)c2)c1` [Example 47], for which the EC50 was determined as 6730 nM.
On the same count and under the same terms, the same measure for `CS(=O)(=O)Nc1cc(I)cc(NC(=O)c2cc(-c3ccccc3)cs2)c1` [Example 16]: 3510 nM.
On the same count and under the same terms, the same measure for `Cc1cc(C(=O)Nc2cc(Cl)cc(NS(C)(=O)=O)c2)cn1-c1ncc(F)cn1` [Example 207]: 508 nM; for `CS(=O)(=O)Nc1cc(Cl)cc(NC(=O)c2cc3c(F)ccc(F)c3s2)c1` [Example 325]: 6090 nM; for `CN1CCC(n2cc(C(=O)Nc3cc(Cl)cc(NS(C)(=O)=O)c3)cn2)CC1=O` (stereo not drawn) [Example 307]: greater than 10000 nM.
Turning to `Cc1cc(C(=O)Nc2cc(Br)cc(NS(C)(=O)=O)c2)cn1C1CCCCC1` [Example 85, N-(3-bromo-5-(methylsulfonamido)phenyl)-1-cyclohexyl-5-methyl-1H-pyrrole-3-carboxamide], the EC50 worked out at 2760 nM.
Same read-out and setting: the same measure for `CC(C)(C)OC(=O)N1CC2(CC(n3cc(C(=O)Nc4cc(Cl)cc(NS(C)(=O)=O)c4)cn3)C2)C1` [Example 144, tert-butyl 6-(4-((3-chloro-5-(methylsulfonamido)phenyl)carbamoyl)-1H-pyrazol-1-yl)-2-azaspiro[3.3]heptane-2-carboxylate]: 5850 nM; for `CS(=O)(=O)Nc1cc(Cl)cc(NC(=O)c2cc3c(F)cccn3c2)c1` [Example 305]: 3330 nM.
With `CS(=O)(=O)Nc1cc(Cl)cc(NC(=O)c2cnn(-c3ncc(N4CC5(COC5)C4)cc3OCc3cc(F)cc(F)c3)c2)c1` [Example 258], the EC50 came to 291 nM.
The same measure, in the same setting: the same measure for `Cc1cc(C(=O)Nc2cc(Cl)cc(NS(=O)(=O)C3CC3)c2)cn1-c1ccc(N2CCOCC2)cn1` [Example 247]: 2240 nM.
The same measure, in the same setting: the same measure for `CCS(=O)(=O)Nc1cc(Cl)cc(NC(=O)c2cc(-c3ncc(F)cn3)cs2)c1` [Example 343]: 189 nM; for `CS(=O)(=O)Nc1cc(Cl)cc(NC(=O)c2cnn([C@H]3CC[C@@H](O)CC3)c2)c1` [Example 151, N-(3-chloro-5-(methylsulfonamido)phenyl)-1-((1s,4s)-4-hydroxycyclohexyl)-1H-pyrazole-4-carboxamide]: greater than 10000 nM.
As for `CS(=O)(=O)Nc1cc(Br)cc(NC(=O)c2ccc3c(c2)[nH]c(=O)n3Cc2ccccc2)c1` [Example 99, 1-benzyl-N-(3-bromo-5-(methylsulfonamido)phenyl)-2-oxo-2,3-dihydro-1H-benzo[d]imidazole-5-carboxamide], the EC50 was greater than 10000 nM.
With `CS(=O)(=O)Nc1cc(Br)cc(NC(=O)c2cnn(-c3cnccn3)c2)c1` [Example 40], the EC50 stood at 1150 nM.
Consider `CS(=O)(=O)Nc1cc(Cl)cc(NC(=O)c2cnn([C@@H]3CCCC[C@@H]3O)c2)c1` (relative stereo) [Example 153, N-(3-chloro-5-(methylsulfonamido)phenyl)-1-(2-cis-hydroxycyclohexyl)-1H-pyrazole-4-carboxamide], for which the EC50 amounted to 6110 nM.
For the compound `Cc1ccc(C(=O)Nc2cc(Br)cc(NS(C)(=O)=O)c2)cc1-n1cccn1` [Example 10], the 50% effective concentration (EC50) is 12300 nM.
In the case of `CSc1cccnc1-n1cc(C(=O)Nc2cc(Cl)cc(NS(C)(=O)=O)c2)cn1` [Example 219], the concentration giving a half-maximal response (EC50) was 265 nM.
On the same count and under the same terms, the same measure for `CS(=O)(=O)Nc1cc(Br)cc(NC(=O)c2cnn(-c3ccccc3C(O)C(F)(F)F)c2)c1` (stereo not drawn) [Example 103, N-(3-bromo-5-(methylsulfonamido)phenyl)-1-(2-(2,2,2-trifluoro-1-hydroxyethyl)phenyl)-1H-pyrazole-4-carboxamide]: 5310 nM; for `CS(=O)(=O)Nc1cc(Cl)cc(NC(=O)c2cnn(-c3ncccc3OCc3ccccn3)c2)c1` [Example 63]: 2430 nM.
Same read-out and setting: the same measure for `Cn1nc(-c2ccccn2)cc1C(=O)Nc1cc(Cl)cc(NS(C)(=O)=O)c1` [Example 141]: greater than 10000 nM; for `CS(=O)(=O)Nc1cc(Cl)cc(NC(=O)c2cc(N3CCOCC3)cs2)c1` [Example 245]: 4310 nM.

Still in this assay, the particulars now being: Homo sapiens, HCT-116, circBRIP1, HCT116 cells; ^+ SyBr assay was used; read-out: DHX9 Cellular Target Engagement EC50.
For the compound `CS(=O)(=O)Nc1cc(Cl)cc(NC(=O)c2cc(-n3cc(F)cn3)cs2)c1` [Example 440], the half-maximal effective concentration (EC50) is 370 nM.
Turning to `COCc1cc(C(=O)Nc2cc(Cl)cc(NS(C)(=O)=O)c2)cn1-c1ncccc1F` [Example 682], the concentration giving a half-maximal response (EC50) stood at 149 nM.
As to `CS(=O)(=O)Nc1cc(Cl)cc(NC(=O)c2cc(C(=O)N3CCOCC3)n(-c3ccccn3)c2)c1` [Example 731], the EC50 is greater than 10000 nM.
The same measure, in the same setting: the same measure for `CN1CCN(c2csc(C(=O)Nc3cc(Cl)cc(NS(C)(=O)=O)c3)c2)C1=O` [Example 431]: 447 nM; for `CS(=O)(=O)Nc1cc(Cl)cc(NC(=O)c2cnn(-c3ncc(N4CCOCC4)cn3)c2)c1` [Example 394]: 4230 nM; for `Cn1cc(C(=O)Nc2cc(Cl)cc(NS(C)(=O)=O)c2)cc1-c1ncccc1Oc1cccnc1` [Example 655]: 4520 nM.
On to `CSc1cnc(-n2cc(C(=O)Nc3cc(Cl)cc(NS(C)(=O)=O)c3)cc2C)nc1` [Example 658], for which the 50% effective concentration (EC50) is 425 nM.
Regarding `Cc1sc(C(=O)Nc2cc(Cl)cc(NS(C)(=O)=O)c2)cc1-c1nccn1CCc1ccccc1` [Example 698], the EC50 turned out to be 2490 nM.
On the same count and under the same terms, the same measure for `CS(=O)(=O)Nc1cc(Cl)cc(NC(=O)c2cc(N3CCOC3=O)cs2)c1` [Example 433]: 1410 nM; for `CS(=O)(=O)Nc1cc(Cl)cc(NC(=O)c2cc(-c3ncc(F)cn3)c(C3CC3)s2)c1` [Example 448]: 2730 nM.
Still for that read-out and setting: the same measure for `CS(=O)(=O)Nc1cc(Cl)cc(NC(=O)c2cc3c(s2)CCC3Oc2cccnc2)c1` (stereo not drawn) [Example 687]: 3560 nM.
Turning to `Cc1sc(C(=O)Nc2cc(Cl)cc(NS(C)(=O)=O)c2)cc1-c1ncc(F)cc1-c1cnco1` [Example 705], the half-maximal effective concentration (EC50) was 679 nM.
On the same count and under the same terms, the same measure for `Cc1sc(C(=O)Nc2cc(Cl)cc(NS(C)(=O)=O)c2)cc1-c1ncc(F)cc1-c1cncc(F)c1` [Example 607]: 126 nM; for `CS(=O)(=O)Nc1cc(Cl)cc(NC(=O)c2cnn(C3CCCC3OCc3ccccc3)c2)c1` (stereo not drawn) [Example 424]: 4110 nM.

Still in this assay, the particulars now being: circBRIP1, HCT116 cells; SyBr assay (marked ^+); read-out: DHX9 Cellular Target Engagement EC50.
On to `CCc1sc(C(=O)Nc2cc(Cl)cc(NS(C)(=O)=O)c2)cc1-c1ccccn1` [Example 232], for which the EC50 amounted to 61 nM.

The term EC50 denotes the midpoint of the concentration-response curve.
